Laboratory results reported in patent US20260265304A1, “PEPTIDE INHIBITORS OF FOCAL ADHESION KINASE ACTIVITY AND USES THEREOF” (Arizona Board of Regents on Behalf of the University of …, priority 2019, published 2026).
Read-outs that look alike come from different tables or passages of the source. Positions of bridges follow the written chain, without caps; N, C: chain ends. Non-standard residues stand in square brackets, D forms with d. Residues, ends and D or L forms follow the SMILES beside them. *: point of attachment. Myristoyl = CCCCCCCCCCCCCC(=O)*; R8 = C=CCCCCCC[C@@](C)(N)C(=O)O; R5 = C=CCCC[C@@](C)(N)C(=O)O; S5 = C=CCCC[C@](C)(N)C(=O)O

Columns and labels:
[1] = biological target: T1, FAK FAT domain (biotinylated Avitag-FAT protein) (Homo sapiens, UniProt Q05397); assay: Surface plasmon resonance (SPR) binding to immobilised FAT protein; details: for Kd: FAT protein immobilised, peptide 200 μM-0.01 μM, 1:1 binding model; for binding and inhibitory properties (SPR/FP) in words, compared to 1907: SAR discussion of SPR and FP data
T1 construct: biotinylated Avitag-FAT protein was diluted in running buffer
T1 sequence (Q05397 914-1045 limits assumed): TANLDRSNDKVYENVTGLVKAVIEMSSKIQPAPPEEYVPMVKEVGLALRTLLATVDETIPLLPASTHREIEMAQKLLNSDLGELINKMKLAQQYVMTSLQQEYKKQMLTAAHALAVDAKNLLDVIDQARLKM
Protocol: SPR binding studies were performed on a ForteBio Pioneer FE SPR system. In brief, a SADH Streptavidin in Dextran Hydrogel biosensor (ForteBio) was docked onto the flow cell and preconditioned with two injections of 10 mM NaOH, 1 M NaCl for 1 min at 50 μL/min. […] Empty channel 2 served as the reference control. After achieving a stable baseline, a concentration series (200 μM-0.01 μM) of peptide was prepared in final running buffer (100 mM Tris-HCl, 200 mM NaCl, 0.05% Tween-20, 5% DMSO) and injected using the OneStep gradient injection method at a flow rate of 75 μL/min. […] Raw SPR data were appropriately processed in Qdat software (ForteBio) by normalizing the baseline prior to injection, aligning the channels, subtraction of the reference channel, and blank subtraction. Kinetic data were fitted to a pseudo-first order 1:1 interaction binding model using to calculate KD. In addition, a steady-state model and Req data points were used to validate the binding affinity. Visual inspection of the SPR sensograms was performed to verify appropriate model fitting, lack of mass transport effects, return to baseline, and lack of irregular kinetics.

[2] = biological target: T2, FAK FAT domain (paxillin-FAT binding) (Homo sapiens, UniProt Q05397); assay: Competition fluorescence polarization (FP) assay, inhibition of TAMRA-LD2 binding to FAT
T2 construct: FP Buffer containing 20 μM FAT and 0.1 μM TAMRA-LD2
T2 sequence (Q05397 914-1045 limits assumed): T1 sequence (Q05397 914-1045 limits assumed)
Protocol: The FP assay buffer used was 20 mM Tris, 200 mM NaCl, 0.05% β-me, 0.1% Triton X-100, 5% glycerol, and 1× Halt protease inhibitor cocktail. […] Bodipy TMR FP optical module (2100-4100) was used as the mirror.
Wells with no FAT were used as a baseline value which was subtracted from the raw values to produce ΔmP values. The plate was read at every hour for four hours to test for time differences in IC50. The titration data was processed through GraphPad Prism to produce a dose response curve and a calculated IC50 with standard error (SE). A four-parameter dose-response inhibition model was utilized and the bottom fit was constrained to the lower plateau of the curve. Ki was determined from the following calculation:
P0 is the concentration of free protein and KD is calculated from the saturation curve. 150 is calculated by the following equation:
where PT is the total protein concentration, LT is the total labeled-ligand concentration, P0 is the positive root of P0^2+(KD+LT)*P0−PT, PL0=P−P0, PL50=PL0/2, L0=LT-PL0, and L50=LT-PL50.

| Compound | Kd ([1]; read-out: SPR KD) [µM] | binding and inhibitory properties (SPR/FP) in words, compared to 1907 [1] | Ki ([2]; read-out: FP Ki) [µM] | Kd ([1]; SPR KD) [µM] | Ki [2] [µM] |
| --- | --- | --- | --- | --- | --- |
| CC(=O)N[C@@H](CO)C(=O)N[C@@H](C)C(=O)N[C@H](C(=O)N[C@@H](CCCNC(=N)N)C(=O)N[C@@H](CCC(=O)O)C(=O)N[C@@]1(C)CCCC=CCCC[C@@](C)(C(=O)N[C@@H](C)C(=O)N[C@@H](CO)C(=O)N[C@@H](CC(C)C)C(=O)N[C@@H](CO)C(=O)N[C@@H](CC(=O)O)C(N)=O)NC(=O)[C@H](CC(C)C)NC(=O)[C@H](CCC(=O)O)NC(=O)[C@H](CC(=O)O)NC1=O)[C@@H](C)O [Peptide 1917, Ac-SATRES5DELS5ASLSD-NH2] (Ac-SATRE[S5]DEL[S5]ASLSD-NH2; staple 6-10) | 4.9 | similar, albeit lower activity than LD2-derived 1907 | 6.72 | – | – |
| CC(=O)N[C@@H](CC(N)=O)C(=O)N[C@@H](CC(C)C)C(=O)N[C@@H](CO)C(=O)N[C@@H](CCC(=O)O)C(=O)N[C@@H](CC(C)C)C(=O)N[C@@H](CC(=O)O)C(=O)N[C@@H](CCCNC(=N)N)C(=O)N[C@@H](CC(C)C)C(=O)N[C@]1(C)CCCC=CCCC[C@@](C)(C(=O)N[C@@H](CC(N)=O)C(N)=O)NC(=O)[C@H](CCC(=O)O)NC(=O)[C@H](CC(C)C)NC1=O [Peptide 1921] (Ac-NLSELDRL[R5]LE[S5]N-NH2; staple 9-12) | – | did not show much activity compared to 1907 | 492 | – | – |
| CC(=O)N[C@@H](CC(N)=O)C(=O)N[C@@H](CC(C)C)C(=O)N[C@]1(C)CCCCCCC=CCCC[C@@](C)(C(=O)N[C@@H](CCC(=O)O)C(=O)N[C@@H](CC(C)C)C(=O)N[C@@H](CC(N)=O)C(N)=O)NC(=O)[C@H](CC(C)C)NC(=O)[C@H](CC(C)C)NC(=O)[C@H](C)NC(=O)[C@H](CC(=O)O)NC(=O)[C@H](CC(C)C)NC(=O)[C@H](C)NC1=O [Peptide 2010, Ac-NLR8ALDALLS5ELN-NH2] (Ac-NL[R8]ALDALL[S5]ELN-NH2; staple 3-10) | – | – | – | 12.6 | 68.5 |
| CC(=O)N[C@@H](CC(N)=O)C(=O)N[C@@H](CC(C)C)C(=O)NC(C)(C)C(=O)N[C@@H](CCC(=O)O)C(=O)N[C@@H](CC(C)C)C(=O)N[C@@H](CC(=O)O)C(=O)N[C@@H](CCCNC(=N)N)C(=O)N[C@@H](CC(C)C)C(=O)N[C@@H](CC(C)C)C(=O)NC(C)(C)C(=O)N[C@@H](CCC(=O)O)C(=O)N[C@@H](CC(C)C)C(=O)N[C@@H](CC(N)=O)C(N)=O [Peptide 1912, Ac-NLAibELDRLLAibELN-NH2] | – | lower activity compared to 1907 | – | – | – |
| CC(=O)N[C@@H](CC(N)=O)C(=O)N[C@@H](CC(C)C)C(=O)N[C@]1(C)CCCCCCC=CCCC[C@@](C)(C(=O)N[C@@H](CCC(=O)O)C(=O)N[C@@H](CCC(=O)O)C(=O)N[C@@H](CC(N)=O)C(N)=O)NC(=O)[C@H](CC(C)C)NC(=O)[C@H](CC(C)C)NC(=O)[C@H](CCCNC(=N)N)NC(=O)[C@H](CC(=O)O)NC(=O)[C@H](CCC(=O)O)NC(=O)[C@H](CCC(=O)O)NC1=O [Peptide 2014, Ac-NLR8EEDRLLS5EEN-NH2] (Ac-NL[R8]EEDRLL[S5]EEN-NH2; staple 3-10) | – | completely no binding and inhibitory properties | – | – | – |
| CC(=O)N[C@]1(C)CCCCCCC=CCCC[C@@](C)(C(N)=O)NC(=O)[C@H](CC(C)C)NC(=O)[C@H](CC(C)C)NC(=O)[C@H](CCCNC(=N)N)NC(=O)[C@H](CC(=O)O)NC(=O)[C@H](CC(C)C)NC(=O)[C@H](CCC(=O)O)NC1=O [Peptide 2011, Ac-R8ELDRLLS5-NH2] (Ac-[R8]ELDRLL[S5]-NH2; staple 1-8) | – | no binding and inhibitory properties | – | – | – |
| CCCCCCCCCCCCCC(=O)NCCCC[C@@H]1NC(=O)[C@H](CC(=O)O)NC(=O)[C@H](CC(C)C)NC(=O)[C@H](CCC(=O)O)NC(=O)[C@](C)(NC(=O)[C@H](CC(C)C)NC(=O)[C@H](CC(N)=O)NC(C)=O)CCCCCCC=CCCC[C@@](C)(C(=O)N[C@@H](CCC(=O)O)C(=O)N[C@@H](CC(C)C)C(=O)N[C@@H](CC(N)=O)C(N)=O)NC(=O)[C@H](CC(C)C)NC(=O)[C@H](CC(C)C)NC1=O [Peptide 2029, Ac-NLR8ELDK(myristoyl)LLS5ELN-NH2] (Ac-NL[R8]ELDK(Myristoyl)LL[S5]ELN-NH2; staple 3-10) | – | – | – | 19.5 | – |

More lines, main results first:

| Kd ([1]; read-out: SPR KD) [µM] | Compound | binding and inhibitory properties (SPR/FP) in words, compared to 1907 [1] | Ki ([2]; read-out: FP Ki) [µM] | Kd ([1]; SPR KD) [µM] | Ki [2] [µM] |
| --- | --- | --- | --- | --- | --- |
| > 200 | CC(=O)N[C@@H](CC(N)=O)C(=O)N[C@@H](CC(C)C)C(=O)N[C@@H](CO)C(=O)N[C@@H](CCC(=O)O)C(=O)N[C@]1(C)CCCCCCC=CCCC[C@@](C)(C(=O)N[C@@H](CC(N)=O)C(N)=O)NC(=O)[C@H](CCC(=O)O)NC(=O)[C@H](CC(C)C)NC(=O)[C@H](C)NC(=O)[C@H](C)NC(=O)[C@H](CCCNC(=N)N)NC(=O)[C@H](CC(=O)O)NC1=O [Peptide 1925, Ac-NLSER8DRAALES5N-NH2] (Ac-NLSE[R8]DRAALE[S5]N-NH2; staple 5-12) | – | 492 | – | – |
| 68.9 | CC(=O)N[C@@H](CC(N)=O)C(=O)N[C@@H](CC(C)C)C(=O)N[C@@H](CO)C(=O)N[C@@H](CCC(=O)O)C(=O)N[C@@]1(C)CCCC=CCCC[C@@](C)(C(=O)N[C@@H](CC(C)C)C(=O)N[C@@H](CCC(=O)O)C(=O)N[C@@H](CC(C)C)C(=O)N[C@@H](CC(N)=O)C(N)=O)NC(=O)[C@H](CC(C)C)NC(=O)[C@H](CCCNC(=N)N)NC(=O)[C@H](CC(=O)O)NC1=O [Peptide 1919, Ac-NLSES5DRLS5LELN-NH2] (Ac-NLSE[S5]DRL[S5]LELN-NH2; staple 5-9) | did not show much activity compared to 1907 | 38.6 | – | – |
| > 200 | CC(=O)N[C@@H](CC(N)=O)C(=O)N[C@@H](CC(C)C)C(=O)N[C@@H](CO)C(=O)N[C@]1(C)CCCCCCC=CCCC[C@@](C)(C(=O)N[C@@H](CC(C)C)C(=O)N[C@@H](CC(N)=O)C(N)=O)NC(=O)[C@H](CC(C)C)NC(=O)[C@H](CC(C)C)NC(=O)[C@H](CC(C)C)NC(=O)[C@H](CCCNC(=N)N)NC(=O)[C@H](CC(=O)O)NC(=O)[C@H](CC(C)C)NC1=O [Peptide 1905, Ac-NLSR8LDRLLLS5LN-NH2] (Ac-NLS[R8]LDRLLL[S5]LN-NH2; staple 4-11) | no binding and inhibitory properties | – | – | – |
| 32.3 | CSCC[C@@H]1NC(=O)[C@H](CC(C)C)NC(=O)[C@H](CCC(=O)O)NC(=O)[C@H](CC(=O)O)NC(=O)[C@H](CC(C)C)NC(=O)[C@H](CCC(=O)O)NC(=O)[C@](C)(NC(=O)[C@@H](NC(=O)[C@H](C)NC(=O)[C@H](CO)NC(C)=O)[C@@H](C)O)CCCCCCC=CCCC[C@@](C)(C(=O)N[C@@H](CO)C(=O)N[C@@H](CC(C)C)C(=O)N[C@@H](CO)C(=O)N[C@@H](CC(=O)O)C(N)=O)NC1=O [Peptide 1916, Ac-SATR8ELDELMS5SLSD-NH2] (Ac-SAT[R8]ELDELM[S5]SLSD-NH2; staple 4-11) | did not have comparable activity to LD2-derived 1907 | 47.5 | – | – |
| 155 | CC(=O)N[C@@H](CC(N)=O)C(=O)N[C@@H](CC(C)C)C(=O)N[C@]1(C)CCCCCCC=CCCC[C@@](C)(C(=O)N[C@@H](CCC(=O)O)C(=O)N[C@@H](Cc2c[nH]c3ccccc23)C(=O)N[C@@H](CC(N)=O)C(N)=O)NC(=O)[C@H](CC(C)C)NC(=O)[C@H](CC(C)C)NC(=O)[C@H](CCCNC(=N)N)NC(=O)[C@H](CC(=O)O)NC(=O)[C@H](Cc2c[nH]c3ccccc23)NC(=O)[C@H](CCC(=O)O)NC1=O [Peptide 1933, Ac-NLR8EWDRLLS5EWN-NH2] (Ac-NL[R8]EWDRLL[S5]EWN-NH2; staple 3-10) | worse binding and inhibitory properties compared to 1907 | 281 | – | – |
| 64.3 | CC(=O)N[C@@H](CC(N)=O)C(=O)N[C@@H](CC(C)C)C(=O)N[C@@H](CO)C(=O)N[C@@H](CCC(=O)O)C(=O)N[C@]1(C)CCCCCCC=CCCC[C@@](C)(C(=O)N[C@@H](CC(N)=O)C(N)=O)NC(=O)[C@H](CCC(=O)O)NC(=O)[C@H](CC(C)C)NC(=O)[C@H](CC(C)C)NC(=O)[C@H](CC(C)C)NC(=O)[C@H](CCCNC(=N)N)NC(=O)[C@H](CC(=O)O)NC1=O [Peptide 1914, Ac-NLSER8DRLLLES5N-NH2] (Ac-NLSE[R8]DRLLLE[S5]N-NH2; staple 5-12) | limited activity compared to 1907 | – | – | – |
